In patent publication US20240239775A1, “FXR REGULATOR, PREPARATION METHOD THEREFOR, PHARMACEUTICAL COMPOSITION THEREOF AND USE THEREOF” (QINGDAO RUIJI MEDICAL TECHNOLOGY CO., LTD., priority 2021, published 2024):

Molecular target: T1, FXR (Homo sapiens, UniProt Q96RI1)
T1 construct: 5 μL of 20 nM FXR-LBD Complete Coregulator buffer G; purchased ThermoFisher PV4833
T1 sequence (Q96RI1 262-486 limits assumed): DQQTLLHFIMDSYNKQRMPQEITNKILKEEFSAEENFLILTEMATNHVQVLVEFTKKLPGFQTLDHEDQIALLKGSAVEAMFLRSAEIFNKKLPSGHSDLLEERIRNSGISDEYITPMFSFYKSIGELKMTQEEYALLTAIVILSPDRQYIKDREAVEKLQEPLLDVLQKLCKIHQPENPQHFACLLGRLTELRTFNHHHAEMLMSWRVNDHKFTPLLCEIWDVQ
Test: FXR antagonist screening by TR-FRET (LanthaScreen TR-FRET FXR co-activation assay kit)
Assay type: biochemical
Conditions: Table 1.1, FXR antagonistic activity; TR-FRET with CDCA; geometric means of at least two independent runs
Outline: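 FXR-LBD (20 nM working solution) mixed with compound, CDCA (200 μM working solution) as agonist, Fluorescein-SRC2-2 and Tb-anti-GST antibody in Coregulator buffer G; 10 h at room temperature. Coactivator recruitment read by TR-FRET, triplicate wells.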

Row | SMILES | IC50
1 | CCOC(=O)c1oc2ccc(S(=O)(=O)N(CCc3ccccc3)Cc3ccccc3Br)cc2c1C [Example M4-16, ethyl 3-methyl-5-(N-(2-bromobenzyl)-N-phenethylsulfamoyl)benzofuran-2-carboxylate] | 50 to 100 µM
2 | CCOC(=O)c1oc2ccc(S(=O)(=O)N(CCc3ccccc3)Cc3ccc(C(C)=O)cc3)cc2c1C [Example M4-38, ethyl 3-methyl-5-(N-(4-acetylbenzyl)-N-phenethylsulfamoyl)benzofuran-2-carboxylate] | 50 to 100 µM
3 | CCOC(=O)c1oc2ccc(S(=O)(=O)N(CCc3ccccc3)Cc3cccc(Cl)c3)cc2c1C [Example M4-21, ethyl 3-methyl-5-(N-(3-chlorobenzyl)-N-phenethylsulfamoyl)benzofuran-2-carboxylate] | 50 to 100 µM
4 | CCOC(=O)c1oc2ccc(S(=O)(=O)N(CCc3ccccc3)Cc3ccccc3N3CCN(C(=O)CC(C)(C)C)CC3)cc2c1C [Example M10-103, ethyl 3-methyl-5-(N-(2-(4-(3,3-dimethylbutyryl)piperazin-1-yl)benzyl)-N-phenethylsulfamoyl)benzofuran-2-carboxylate] | 50 to 100 µM
5 | CCOC(=O)c1oc2ccc(S(=O)(=O)N(CCc3ccccc3)Cc3ccccc3F)cc2c1C [Example M4-14, ethyl 3-methyl-5-(N-(2-fluorobenzyl)-N-phenethylsulfamoyl)benzofuran-2-carboxylate] | 50 to 100 µM
6 | CCOC(=O)c1oc2ccc(S(=O)(=O)N(CCc3ccccc3)Cc3ccc(F)cc3F)cc2c1C [Example M4-51, ethyl 3-methyl-5-(N-(2,4-difluorobenzyl)-N-phenethylsulfamoyl)benzofuran-2-carboxylate] | 50 to 100 µM
7 | CCOC(=O)c1oc2ccc(S(=O)(=O)N(CCc3ccccc3)c3ccc(N4CCN(C(=O)OC(C)(C)C)CC4)cc3)cc2c1C [Example M8-65, ethyl 3-methyl-5-(N-(4-(4-(tert-butoxycarbonyl)piperazin-1-yl)phenyl)-N-phenethylsulfamoyl)benzofuran-2-carboxylate] | 50 to 100 µM
8 | Cc1c(C(=O)O)oc2ccc(S(=O)(=O)N(CCc3ccccc3)Cc3ccc(Br)cc3)cc12 [Example F27-S30, 3-methyl-5-(N-(4-bromobenzyl)-N-phenethylsulfamoyl)benzofuran-2-carboxylic acid] | 10 to 50 µM
9 | CCOC(=O)c1oc2ccc(S(=O)(=O)N(CCc3ccccc3)Cc3ccccc3N3CCN(C(=O)c4ccccc4)CC3)cc2c1C [Example M10-105, ethyl 3-methyl-5-(N-(2-(4-benzoylpiperazin-1-yl)benzyl)-N-phenethylsulfamoyl)benzofuran-2-carboxylate] | 50 to 100 µM
10 | CCOC(=O)c1oc2ccc(S(=O)(=O)N(CCc3ccccc3)c3ccc(N4CCN(C(=O)OC(C)(C)C)CC4)c(C(F)(F)F)c3)cc2c1C [Example M8-74, ethyl 3-methyl-5-(N-(4-(4-(tert-butoxycarbonyl)piperazin-1-yl)-3-(trifluoromethyl)phenyl)-N-phenethylsulfamoyl)benzofuran-2-carboxylate] | 50 to 100 µM

Same assay, conditions: Table 1.2, FXR antagonistic activity; TR-FRET with CDCA; geometric means of at least two independent runs

Row | SMILES | IC50
11 | CCOC(=O)c1oc2ccc(S(=O)(=O)N(CCc3ccccc3)c3ccccc3N3CCN(C(=O)c4ccno4)CC3)cc2c1C [Example M10-146, Ethyl 5-(N-(2-(4-(isoxazole-5-carbonyl)piperazin-1-yl)phenyl)-N-phenethylsulfamoyl)3-methylbenzofuran-2-carboxylate] | 50 to 100 µM
12 | CCOC(=O)c1oc2ccc(S(=O)(=O)N(CCc3ccccc3)c3ccccc3N3CCN(C(=O)c4ncc[nH]4)CC3)cc2c1C [Example M10-142, Ethyl 5-(N-(2-(4-(1H-imidazole-2-formyl)piperazin-1-yl)phenyl)-N-phenethylsulfamoyl)3-methylbenzofuran-2-carboxylate] | 50 to 100 µM
13 | CCOC(=O)c1sc2ccc(S(=O)(=O)N(CCc3ccccc3[N+](=O)[O-])c3ccccc3N3CCN(C(=O)c4sccc4Br)CC3)cc2c1C [Example M10-174] | 50 to 100 µM
14 | Cc1c(C(=O)O)sc2ccc(S(=O)(=O)N(Cc3ccccc3)c3ccccc3N3CCN(C(=O)c4sccc4Br)CC3)cc12 [Example F27-S181, 5-(N-benzyl-N-(2-(4-(3-bromothiophene-2-carbonyl)piperazin-1-yl)phenyl)sulfamoyl)-3-methylbenzothiophene-2-carboxylic acid] | 0.1 to 10 µM
15 | Cc1c(C(=O)O)oc2ccc(S(=O)(=O)N(CCc3ccccc3)c3ccccc3N3CCN(C(=O)c4cc(Br)cs4)CC3)cc12 [Example F27-S127, 5-(N-(2-(4-(4-bromothiophene-2-carbonyl)piperazin-1-yl)phenyl)-N-phenethylsulfamoyl)-3-methyl benzofuran-2-carboxylic acid] | 0.1 to 10 µM
16 | O=C(O)c1cc2cc(S(=O)(=O)N(CCc3ccccc3)c3ccccc3N3CCN(C(=O)c4sccc4Br)CC3)ccc2s1 [Example F27-S159, 5-(N-(2-(4-(3-bromothiophene-2-carbonyl)piperazin-1-yl)phenyl)-N-phenethylsulfamoyl)benzo[b]thiophene-2-carboxylic acid] | 0.1 to 10 µM
17 | Cc1c(C(=O)O)oc2ccc(S(=O)(=O)N(CCc3ccccc3)c3ccccc3N3CCN(C(=O)c4ccno4)CC3)cc12 [Example F27-S146, 5-(N-(2-(4-(isoxazole-5-carbonyl)piperazin-1-yl)phenyl)-N-phenethylsulfamoyl)3-methylbenzofuran-2-carboxylic acid] | 0.1 to 10 µM
18 | CCOC(=O)c1c(C)c2cc(S(=O)(=O)N(CCc3ccccc3)c3ccccc3N3CCN(C(=O)c4sccc4Br)CC3)ccc2n1C [Example M10-179, Ethyl 5-(N-(2-(4-(3-bromothiophene-2-carbonyl)piperazin-1-yl)phenyl)-N-phenethylsulfamoyl)-1,3-dimethyl-1H-indole-2-carboxylate] | 50 to 100 µM
19 | Cc1c(C(=O)O)oc2ccc(S(=O)(=O)N(CCc3ccccc3)c3ccccc3N3CCN(C(=O)c4ncc[nH]4)CC3)cc12 [Example F27-S142, 5-(N-(2-(4-(1H-imidazole-2-formyl)piperazin-1-yl)phenyl)-N-phenethylsulfamoyl)3-methylbenzofuran-2-carboxylic acid] | 0.1 to 10 µM
20 | CCOC(=O)c1oc2ccc(S(=O)(=O)N(CCc3ccccc3)c3ccccc3N3CCN(C(=O)c4ccc(F)cc4)CC3)cc2c1C [Example M10-112, Ethyl 5-(N-(2-(4-(4-fluorobenzoyl)piperazin-1-yl)phenyl)-N-phenethylsulfamoyl)-3-methylbenzofuran-2-carboxylate] | 50 to 100 µM
21 | Cc1c(C(=O)O)oc2ccc(S(=O)(=O)N(CCc3ccccc3)c3ccccc3N3CCN(C(=O)c4cccnc4)CC3)cc12 [Example F27-S116, 3-methyl-5-(N-(2-(4-nicotinoylpiperazin-1-yl)phenyl)-N-phenethylsulfamoyl)benzofuran-2-carboxylic acid] | 0.1 to 10 µM
22 | CCOC(=O)c1sc2ccc(S(=O)(=O)N(CCc3ccc(C)cc3)c3ccccc3N3CCN(C(=O)c4sccc4Br)CC3)cc2c1C [Example M10-166, Ethyl 5-(N-(2-(4-(3-bromothiophene-2-carbonyl)piperazin-1-yl)phenyl)-N-(4-methylphenylethyl)sulfamoyl)-3-methylbenzothiophene-2-carboxylate] | 50 to 100 µM
23 | Cc1c(C(=O)O)sc2ccc(S(=O)(=O)N(CCCc3ccccc3)c3ccccc3N3CCN(C(=O)c4sccc4Br)CC3)cc12 [Example F27-S176, 5-(N-(2-(4-(3-bromothiophene-2-carbonyl)piperazin-1-yl)phenyl)-N-(3-phenylpropyl)sulfamoyl)-3-methylbenzothiophene-2-carboxylic acid] | 0.1 to 10 µM
24 | Cc1c(C(=O)O)oc2ccc(S(=O)(=O)N(CCc3ccccc3)c3ccccc3N3CCCN(C(=O)c4sccc4Br)CC3)cc12 [Example F27-S154, 5-(N-(2-(4-(3-bromothiophene-2-formyl)-1,4-diazepin-1-yl)phenyl)-N-phenethylsulfamoyl)3-methylbenzofuran-2-carboxylic acid] | 0.1 to 10 µM
25 | CCOC(=O)c1oc2ccc(S(=O)(=O)N(CCc3ccccc3)c3ccccc3N3CCN(C(=O)c4ccc(C(F)(F)F)cc4)CC3)cc2c1C [Example M10-110] | 50 to 100 µM
26 | CCOC(=O)c1sc2ccc(S(=O)(=O)N(C)c3ccccc3N3CCN(C(=O)c4sccc4Br)CC3)cc2c1C [Example M10-182, Ethyl 5-(N-(2-(4-(3-bromothiophene-2-carbonyl)piperazin-1-yl)phenyl)-N-methylsulfamoyl)-3-methylbenzothiophene-2-carboxylate] | 50 to 100 µM
27 | CCOC(=O)c1sc2ccc(S(=O)(=O)N(CCCc3ccccc3)c3ccccc3N3CCN(C(=O)c4sccc4Br)CC3)cc2c1C [Example M10-175, ethyl 5-(N-(2-(4-(3-bromothiophene-2-carbonyl)piperazin-1-yl)phenyl)-N-(3-phenylpropyl)sulfamoyl)-3-methylbenzothiophene-2-carboxylate] | 50 to 100 µM
28 | CCOC(=O)c1oc2ccc(S(=O)(=O)N(CCc3ccccc3)c3ccccc3N3CCN(C(=O)c4ccco4)CC3)cc2c1C [Example M10-121, Ethyl 5-(N-(2-(4-(furan-2-carbonyl)piperazin-1-yl)phenyl)-N-phenethylsulfamoyl)-3-methylbenzofuran-2-carboxylate] | 50 to 100 µM
29 | CCOC(=O)c1cc2cc(S(=O)(=O)N(CCc3ccccc3)c3ccccc3N3CCN(C(=O)c4sccc4Br)CC3)ccc2o1 [Example M10-162, Ethyl 5-(N-(2-(4-(3-bromothiophene-2-formyl)piperazin-1-yl)phenyl)-N-phenethylsulfamoyl)benzofuran-2-carboxylate] | 50 to 100 µM
30 | CCOC(=O)c1oc2ccc(S(=O)(=O)N(CCc3ccccc3)c3ccccc3N3CCC4(CC3)CN(C(=O)c3sccc3Br)C4)cc2c1C [Example M10-150] | 50 to 100 µM
